# Key:
# [1] = system: DEN-induced liver fibrosis in rats; assay: DEN-induced rat liver fibrosis model; format: in vivo, SD rat; settings: 12 weeks, vs model group
# Experimental: Experimental method: An SD rat liver damage model was constructed through intermittent intraperitoneal injection of DEN. A model group was injected intraperitoneally with DEN at 50 mg/kg twice a week in the first 4 weeks and then once a week in the 5th to 12th weeks. An SMI0 intervention group was divided into SMI0+DEN low-dose and high-dose groups and an SMI0 high-dose continuous administration group, where the SMI0+DEN low-dose and high-dose groups were intragastrically administered with the compound SMI0 at 30 mg/kg and 150 mg/kg 5 min before DEN administration each time, respectively; and the SMI0 high-dose continuous administration group was intragastrically administered with the compound SMI0 at 150 mg/kg every day from the 1st week to the 12th week. At the end of molding, blood was collected from the orbit, and plasma liver function indexes of rats were determined by an automatic biochemical analyzer (model group, n=10 rats; SMI0 compound low-dose group, n=21 rats; SMI0 compound+DEN high-dose group, n=28 rats; and SMI0 compound high-dose continuous administration group, n=24 rats).
# [2] = system: LPS-induced pulmonary fibrosis in mice; assay: LPS-induced mouse pulmonary fibrosis model; format: in vivo, C57BL/6N mouse
# Experimental: Experimental method: A C57BL/6N mouse pulmonary fibrosis model was established through intratracheal instillation with 8 mg/kg LPS. An SMI0 intervention group was divided into a low-dose group and a high-dose group, which were intragastrically administered with the compound SMI0 respectively at 30 mg/kg and 90 mg/kg every day from three days before modeling to the end of the 28-d modeling (control group, n=8; model group, n=8; and SMI0 compound high-dose group, n=8). At the end of the experiment, a body weight of mice in each group was recorded, blood was collected from the orbit, the mice were sacrificed, and lung tissues were collected and weighed. The left lungs were fixed in 4% formalin and subjected to HE and Masson staining, and the lung tissues were subjected to fibrosis grading and fibrosis and histological scoring to reflect a severity of pulmonary fibrosis.
# Experimental method: An ammonium molybdate method and a microplate method were used to treat a mouse lung tissue homogenate, and changes of oxidative stress indexes CAT and GSH in the lung tissue of mice in each group were detected. Expression levels of […] and α-SMA in the mouse lung tissue were evaluated through immunohistochemical staining, and a positive area percentage was counted by Image-Pro Plus software. Expression levels of the epithelial cell marker E-cadherin, the apoptosis-associated protein Bax, and the anti-apoptotic protein Bcl-2 were detected by WB.
# [3] = system: CT26 cell lung metastasis; assay: Lung metastasis model, tail vein injection of CRC cell CT26; format: in vivo, Balb/C mouse; settings: SMI0 30 mg/kg, 14 days
# [4] = system: liver cancer cell line H22 in situ transplanted tumor; assay: Mouse liver cancer model, in situ implantation of H22 cells into liver; format: in vivo, BALB/c mouse; settings: for liver H22 tumor incidence: 24 days, model group 100%
# Experimental: Experimental method: A male BALB/c mouse liver transplanted tumor model was constructed through in situ implantation of a liver cancer cell line H22 into the liver, with a cell concentration of 1.5*10^5. An SMI0 intervention group was divided into a low-dose group, a medium-dose group, and a high-dose group, which were intragastrically administered with the compound SMI0 respectively at 3.3 mg/kg, 10 mg/kg, and 30 mg/kg every day from two days before modeling to the end of the 24-day modeling (model group, n=19 mice; SMI0 compound low-dose group, n=19 mice; SMI0 compound medium-dose group, n=18 mice; and SMI0 compound high-dose group, n=29 mice). At the end of the experiment, blood was collected from the orbit, a body weight was measured, and then the mice each were sacrificed. The weight and appearance of a liver (color and texture of the liver) were recorded. Some liver specimens were subjected to HE staining, and then the liver lesion and tumorigenesis of mice in each group were observed.
# Experimental method: The levels of oxidative stress indexes MDA and T-AOC in the mouse paracancerous liver tissue were determined by a kit method; the expression of the chemokine CXCL-12 in the mouse paracancerous liver tissue was detected by RT-PCR; the expression of proinflammatory cytokines (TNF-α, IL-6, and IL-1β) and inflammation-associated signaling pathway proteins (ARRB1, Src, ITGAV, p-STAT3/STAT3, p-ERK/ERK, and p-P38MAPK/P38MAPK) in the mouse paracancerous liver tissue was detected by a WB method; and the expression of apoptosis-associated proteins and signaling pathways casPase3, cleaved casPase3, p-ERK/ERK, and p-p38MAPK/p38MAPK in the tumor tissue was detected by a WB method.
# [5] = system: GL261 cells; assay: Direct effect on GL261 glioma cells in vitro; format: cell-based, murine
# Experimental: Experimental method: GL261 murine glioma cells and U251 human glioma cells in a logarithmic growth phase each were selected and inoculated into a 96-well plate at a concentration of 5*10^5 cells/mL, then 100 μL of a cell suspension was added to each well, and 12 h later, a medium was discarded; 200 μL of a basic medium including SMI0 at different concentrations ([…]) was added to each well, […]; and the cells were further cultivated for 2 h, and an absorbance OD value of each well was determined at 450 nm by a microplate reader. 3 replicates were set for each well, and an average was taken. The proliferation activity was calculated based on the OD value.
# [6] = system: ID-8 cells; assay: In vitro inhibition experiment on ID-8 cells; format: cell-based, murine; settings: 0 μM to 320 μM, 48 h
# [7] = SMI0 intervention group vs model group, P<0.01
# [8] = WB, SMI0 30 mg/kg vs model group
smiles,measurement,setting,value
CC(=O)c1scnc1C [SMI0],liver coefficient,"[1]; SMI0 intervention group (30, 150 mg/kg before DEN; 150 mg/kg daily)",reduced to varying degrees
same,Collagen I,[1]; SMI0 intervention group,reduced to varying degrees
same,liver fibrosis Ishark score,[1]; SMI0 intervention group,reduced to varying degrees
same,liver fibrosis Masson staining area percentage,[1]; SMI0 intervention group,reduced to varying degrees
same,α-SMA,[1]; SMI0 intervention group,reduced to varying degrees
same,lung index,"[2]; SMI0 intervention group (30, 90 mg/kg ig daily, 28 d) vs model group",significantly reduced
same,immunostaining-positive area percentage of TGF-β 1,[2]; [7],significantly reduced
same,immunostaining-positive area percentage of α-SMA,[2]; [7],significantly reduced
same,oxidative stress index CAT level in lung tissue,[2]; [7],significantly increased
same,pathological inflammatory cell infiltration,"[2]; SMI0 intervention group, 28 d",no obvious pathological inflammatory cell infiltration
same,Bcl-2 level,"[2]; WB, SMI0 intervention group vs model group, P<0.001",significantly increased
same,Bax level,"[2]; WB, SMI0 intervention group vs model group, P<0.01",significantly reduced
same,epithelial cell marker E-cadherin level,"[2]; WB, SMI0 intervention group vs model group, P<0.05",significantly increased
same,lung weight,[3]; vs model group,significantly reduced
same,number of nodules,[3]; vs model group,significantly reduced
same,tumor proliferation inhibition rate,[3]; as high as,66.7%
same,liver H22 tumor incidence,[4]; SMI0 high-dose 30 mg/kg ig daily,68.4%
same,total oxidation resistance index T-AOC in paratumoral liver tissue,[4]; [7],significantly increased
same,"expression of other proteins (MDA, CXCL-12, TNF-α, IL-6, IL-1β, ARRB1, Src, ITGAV, p-STAT3/STAT3, p-ERK/ERK, p-p38MAPK/p38MAPK) in paratumoral liver tissue","[4]; SMI0 intervention group vs model group, P<0.05 or P<0.01",significantly reduced
same,liver H22 tumor incidence,[4]; SMI0 low-dose 3.3 mg/kg ig daily,78.9%
same,liver H22 tumor incidence,[4]; SMI0 medium-dose 10 mg/kg ig daily,72.2%
same,expression of p-ERK/ERK in the tumor tissue,[4]; [8],significantly down-regulated
same,expression of p-p38MAPK/p38MAPK in the tumor tissue,[4]; [8],significantly down-regulated
same,expression of cleaved caspase3/caspase3 in the tumor tissue,"[4]; WB, SMI0 30 mg/kg vs model group, P<0.01",significantly up-regulated
same,tumor proliferation inhibition rate,"[4]; as high as, SMI0 intervention group (3.3, 10, 30 mg/kg), cumulative liver tumor weight",71.8%
same,inhibitory effect on GL261,"[5]; 0 μM to 128 μM, 48 h",no significant inhibitory effect
same,effect on the proliferation of GL261 glioma cells,"[5]; up to 128 μmol/L or 200 μmol/L, CCK8",no significant inhibitory effect
same,inhibitory effect on ID-8,[6],no significant inhibitory effect

# From patent US20230277508A1, “USE OF COMPOUND AS CYP2E1 INHIBITOR” (SHANGHAI LING XI BIOTECHNOLOGY DEVELOPMENT CO., LTD., priority 2020, published 2023)
